The assay has as its system P388 leukemia ip, CD2F1 mice, survival T/C. Briefly: NCI In Vivo Anticancer Drug Screen. Data for tumor model P388 Leukemia (intraperitoneal) in CD2F1 (CDF1) mice. To be noted: endpoint: median survival time, higher = longer survival. The method, boiled down:
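Mice carrying the transplanted tumor received test compound or vehicle. Survival was recorded in each group, and the value is the treated-group measurement divided by that of the vehicle-treated control group.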

Where [1] appears, read: dose: 50.0 mg/kg/injection, schedule: Q01DX005 (ip), vehicle: saline with Tween-80.
[2] abbreviates: dose: 100.0 mg/kg/injection, schedule: Q01DX005 (ip), vehicle: saline with Tween-80.
The mark [3] stands for this setting: dose: 60.0 mg/kg/injection, schedule: Q01DX005 (ip), vehicle: saline with Tween-80.
Where [4] appears, read: dose: 120.0 mg/kg/injection, schedule: Q01DX005 (ip), vehicle: saline with Tween-80.
The mark [5] stands for this setting: dose: 200.0 mg/kg/injection, schedule: Q01DX005 (ip), vehicle: saline with Tween-80.
Setting [6] is: dose: 50.0 mg/kg/injection, schedule: Q01DX005 (ip), vehicle: Klucel (hydroxypropylcellulose) (HPC).
Setting [7] is: dose: 100.0 mg/kg/injection, schedule: Q01DX005 (ip), vehicle: Klucel (hydroxypropylcellulose) (HPC).
Setting [8] is: dose: 200.0 mg/kg/injection, schedule: Q01DX005 (ip), vehicle: Klucel (hydroxypropylcellulose) (HPC).

Where “and” joins values, the source holds several entries; their conditions need not be identical. Identical values can stand only once. Toxic doses and inconclusive results are not listed.

As to `O=C1CCCC(O)=C1[Se]C1=C(O)CCCC1=O`, the T/C is, setting by setting: (dose: 6.25 mg/kg/injection, schedule: Q01DX001 (ip), vehicle: saline) 103 % of control; (dose: 12.5 mg/kg/injection, schedule: Q01DX001 (ip), vehicle: saline) 101 % of control; (dose: 25.0 mg/kg/injection, schedule: Q01DX001 (ip), vehicle: saline) 101 % of control.

For the compound `O=C(CC1(Cl)C(F)(F)C(F)(F)C1(F)F)c1ccccc1`, the T/C is 100 % of control (dose: 6.25 mg/kg/injection, schedule: Q04DX003 (ip), vehicle: saline); 100 % of control (dose: 12.5 mg/kg/injection, schedule: Q04DX003 (ip), vehicle: saline); 100 % of control (dose: 25.0 mg/kg/injection, schedule: Q04DX003 (ip), vehicle: saline).

With `N#CN=[N+]([O-])c1ccc(C(=O)O)cc1`, the T/C was 97 % of control (dose: 7.5 mg/kg/injection, schedule: Q04DX003 (ip), vehicle: Klucel (hydroxypropylcellulose) (HPC)); 111 % of control (dose: 7.5 mg/kg/injection, schedule: Q04DX003 (ip), vehicle: saline with Tween-80); 105 % of control (dose: 15.0 mg/kg/injection, schedule: Q04DX003 (ip), vehicle: Klucel (hydroxypropylcellulose) (HPC)); 112 % of control (dose: 15.0 mg/kg/injection, schedule: Q04DX003 (ip), vehicle: saline with Tween-80); 124 % of control (dose: 30.0 mg/kg/injection, schedule: Q04DX003 (ip), vehicle: saline with Tween-80).

With `NNc1ncnc2c1ncn2C1OC(CO)C(O)C1O` (configuration not stated), the T/C was 120 % of control (dose: 19.8 mg/kg/injection, schedule: Q01DX009 (ip), vehicle: saline); 150 % of control (dose: 30.0 mg/kg/injection, schedule: Q01DX009 (ip), vehicle: saline); 160 % of control (dose: 45.0 mg/kg/injection, schedule: Q01DX009 (ip), vehicle: saline); 120 % of control (dose: 50.0 mg/kg/injection, schedule: Q01DX009 (ip), vehicle: saline with Tween-80); 112 % of control (dose: 66.0 mg/kg/injection, schedule: Q01DX009 (ip), vehicle: saline with Tween-80); 163 % of control (dose: 100.0 mg/kg/injection, schedule: Q01DX009 (ip), vehicle: saline with Tween-80). Also, the T/C by setting is: (dose: 100.0 mg/kg/injection, schedule: Q04DX003 (ip), vehicle: saline) 118 % of control; (dose: 200.0 mg/kg/injection, schedule: Q04DX003 (ip), vehicle: saline) 86 % of control.

For the compound `CCCCC(O)(c1ccc2nc(NC(=O)OC)[nH]c2c1)c1cccs1` (configuration not stated), the T/C is, setting by setting: (dose: 25.0 mg/kg/injection, schedule: Q01DX005 (ip), vehicle: other) 110 % of control; (dose: 50.0 mg/kg/injection, schedule: Q01DX005 (ip), vehicle: other) 107 % of control; (dose: 100.0 mg/kg/injection, schedule: Q01DX005 (ip), vehicle: other) 110 % of control; (dose: 200.0 mg/kg/injection, schedule: Q01DX005 (ip), vehicle: other) 104 % of control.

Regarding `Cc1ccc2nc(N/N=C(\c3ccccc3)c3ccccn3)cc(C)c2c1`, the T/C runs as follows: under setting [1], 100 % of control; under setting [2], 112 % of control.

In the case of `N#CNC1=NCOCN1`, the T/C was 100 % of control under setting [3] and 100 % of control under setting [4].

Consider `[Cl][Pt+2][Cl].[NH-]CC(=O)O.[NH-]CC(=O)O`, for which the T/C reads like this: (dose: 3.13 mg/kg/injection, schedule: Q01DX009 (ip), vehicle: water) 100 % of control and 121 % of control; (dose: 6.25 mg/kg/injection, schedule: Q01DX009 (ip), vehicle: water) 113 % of control; (dose: 12.5 mg/kg/injection, schedule: Q01DX009 (ip), vehicle: water) 123 % of control and 124 % of control; (dose: 25.0 mg/kg/injection, schedule: Q01DX009 (ip), vehicle: water) 117 % of control; (dose: 50.0 mg/kg/injection, schedule: Q01DX009 (ip), vehicle: water) 118 % of control and 121 % of control.

For the compound `OC(COc1c2ccccc2nc2ccccc12)COc1c2ccccc2nc2ccccc12`, the T/C was 104 % of control under setting [3]; 101 % of control under setting [4]; 101 % of control (dose: 240.0 mg/kg/injection, schedule: Q01DX005 (ip), vehicle: saline with Tween-80).

Regarding `CC/C([O-])=C1/C(=O)N(c2ccccc2)N=C1C.CC/C([O-])=C1/C(=O)N(c2ccccc2)N=C1C.[Cu+2]`, the T/C (dose: 15.0 mg/kg/injection, schedule: Q01DX005 (ip), vehicle: saline with Tween-80) is 100 % of control; the T/C (dose: 30.0 mg/kg/injection, schedule: Q01DX005 (ip), vehicle: saline with Tween-80) is 107 % of control; the T/C under setting [3] is 91 % of control and 94 % of control; the T/C under setting [4] was 100 % of control.

Take `CS(=O)(=O)OCCCCCCCCCOS(C)(=O)=O`: the T/C runs as follows: (dose: 12.5 mg/kg/injection, schedule: Q01DX009 (ip), vehicle: saline sonified) 109 % of control; (dose: 25.0 mg/kg/injection, schedule: Q01DX009 (ip), vehicle: saline sonified) 122 % of control; (dose: 33.0 mg/kg/injection, schedule: Q04DX003 (ip), vehicle: saline with Tween-80) 109 % of control; (dose: 50.0 mg/kg/injection, schedule: Q01DX009 (ip), vehicle: saline sonified) 118 % of control; (dose: 50.0 mg/kg/injection, schedule: Q04DX003 (ip), vehicle: saline with Tween-80) 122 % of control; (dose: 75.0 mg/kg/injection, schedule: Q04DX003 (ip), vehicle: saline with Tween-80) 159 % of control.

In the case of `Sc1cc2c(c3ccccc13)Nc1ccccc1S2`, the T/C (dose: 50.0 mg/kg/injection, schedule: Q01DX009 (ip), vehicle: Klucel (hydroxypropylcellulose) (HPC)) was 92 % of control; the T/C (dose: 100.0 mg/kg/injection, schedule: Q01DX009 (ip), vehicle: Klucel (hydroxypropylcellulose) (HPC)) is 97 % of control; the T/C (dose: 200.0 mg/kg/injection, schedule: Q01DX009 (ip), vehicle: Klucel (hydroxypropylcellulose) (HPC)) was 97 % of control.

Take `O=C(N/N=C/c1ccc(O)c(O)c1)c1ccccc1`: the T/C runs as follows: under setting [1], 109 % of control; under setting [2], 118 % of control; under setting [5], 119 % of control.

On to `O=C1OCC(c2ccccc2)(c2ccccc2)C(=O)N1O`, for which the T/C runs as follows: under setting [1], 98 % of control; under setting [2], 103 % of control; under setting [5], 91 % of control.

In the case of `C[S+](C)CCCNC(=O)c1csc(CCNC(=O)c2ccccc2)n1`, the T/C runs as follows: (dose: 12.5 mg/kg/injection, schedule: Q04DX003 (ip), vehicle: saline + alcohol) 95 % of control; (dose: 25.0 mg/kg/injection, schedule: Q04DX003 (ip), vehicle: saline + alcohol) 100 % of control; (dose: 50.0 mg/kg/injection, schedule: Q04DX003 (ip), vehicle: saline + alcohol) 100 % of control.

For the compound `CCOC(=O)C1=C(C)NC(=O)NC1c1cccc(OC)c1O` (configuration not stated), the T/C by setting is: under setting [6], 94 % of control; under setting [7], 91 % of control; under setting [8], 97 % of control.

Turning to `CN(C)CN1C(=O)S/C(=C2\C(=O)N(CN(C)C)c3ccccc32)C1=O`, the T/C was 118 % of control (dose: 30.0 mg/kg/injection, schedule: Q01DX005 (ip), vehicle: Klucel (hydroxypropylcellulose) (HPC)); 120 % of control and 121 % of control (dose: 60.0 mg/kg/injection, schedule: Q01DX005 (ip), vehicle: Klucel (hydroxypropylcellulose) (HPC)); 113 % of control (dose: 120.0 mg/kg/injection, schedule: Q01DX005 (ip), vehicle: Klucel (hydroxypropylcellulose) (HPC)); 120 % of control (dose: 240.0 mg/kg/injection, schedule: Q01DX005 (ip), vehicle: Klucel (hydroxypropylcellulose) (HPC)).

On to `CC(CCCSC(=N)N)SC(=N)N` (configuration not stated), for which the T/C is, setting by setting: (dose: 12.5 mg/kg/injection, schedule: Q01DX009 (ip), vehicle: saline) 105 % of control; (dose: 25.0 mg/kg/injection, schedule: Q01DX009 (ip), vehicle: saline) 98 % of control; (dose: 50.0 mg/kg/injection, schedule: Q01DX009 (ip), vehicle: saline) 104 % of control.

With `O/N=C/c1cccc(O)c1O`, the T/C was 96 % of control under setting [1] and 107 % of control under setting [2].

`COC(=O)CC(c1ccccc1)C1(c2ccc3c(c2)OCO3)SCCCS1` (configuration not stated): the T/C is 92 % of control (dose: 100.0 mg/kg/injection, schedule: Q01DX001 (ip), vehicle: saline with Tween-80) and 90 % of control (dose: 200.0 mg/kg/injection, schedule: Q01DX001 (ip), vehicle: saline with Tween-80).

Regarding `O=C(Nc1cccc2c1CCCC2)c1cc2ccccc2cc1O`, the T/C runs as follows: under setting [1], 92 % of control; under setting [2], 91 % of control; under setting [5], 91 % of control.

As for `O=C1CCc2cc([N+](=O)[O-])cc3c2N1CCC3`, the T/C runs as follows: under setting [6], 95 % of control and 96 % of control; under setting [7], 104 % of control; under setting [8], 98 % of control and 96 % of control.

The values are drawn from PubChem BioAssay AID330 (DTP/NCI, 2004).
